Assays:
human GH = human GH (Homo sapiens, UniProt P01241); test: Slot blot of anti-huGH activity in serum from mice immunized with huGH; format: in vivo, mouse; settings: slot blot on immobilized human GH
[1] = Body weight of mice immunized with huGH; format: in vivo, mouse; settings: 20 male and 20 female mice immunized with huGH
From the text: FIG. 13A provides a plot of body weight of mice immunized with human Growth Hormone (huGH) (20 male and 20 female) versus time.
This figure provides a plot of body weight of mice immunized with human Growth Hormone (huGH) (20 male and 20 female) versus time.

[2] = tested on: chemotherapy side effects; test: Short term immunization with human GH before cyclophosphamide treatment (body weight, complete blood count); format: in vivo, mouse; settings: cyclophosphamide i.p., 300 mg/kg, body weight and CBC 7-days after CP
Protocol: FIG. 14A provides plots of the body weight of mice with short term immunization (STI) with human GH (half-filled arrowheads) after cyclophosphamide treatment (cyclophosphamide (CP) i.p., 300 mg/kg, indicated by the solid arrowhead)(Sham means treated with buffer and no chemo);
FIG. 14B provides a histogram of the complete blood count (CBC) 7-days after CP treatment (Data are presented as percentage of pre-chemo value);
FIG. 14A provides plots of the body weight of mice with short term immunization (STI) with human GH (half-filled arrowheads) after cyclophosphamide treatment (cyclophosphamide (CP) i.p., 300 mg/kg, indicated by solid arrowheads). FIG. 14B provides a histogram of the complete blood count (CBC) 7-days after CP treatment (Data are presented as percentage of pre-chemo value).

[3] = tested on: pancreatic carcinoma cells; settings: Mol Cancer Ther May 2009 8:1095-1105; cited from earlier work
primary glial cells = test: 24 hour LDH release from primary glial cells treated with IGFBP1; format: cell-based
Protocol: FIG. 17 provides a plot of the 24 hour lactate dehydrogenase (LDH) release from the treatment of primary glial cells with the IGF-I inhibitor insulin-like growth factor-binding protein 1 (IGFBP1) and with insulin-like growth factor-binding protein 2 (IGFBP2). […] IGFBP1 is a strong IGF-I inhibitor. Other IGFBPs can even increase IGF-I signaling.

Sequence of human GH (P01241 27-217): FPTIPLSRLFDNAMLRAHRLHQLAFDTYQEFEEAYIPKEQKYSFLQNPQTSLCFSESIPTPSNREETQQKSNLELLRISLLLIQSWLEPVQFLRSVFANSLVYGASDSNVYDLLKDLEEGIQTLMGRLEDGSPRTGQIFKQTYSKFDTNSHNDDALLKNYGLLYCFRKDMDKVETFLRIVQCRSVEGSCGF

human Growth Hormone [huGH]
immunized mice showing strong anti-huGH activity in serum (human GH): 34 out of 40 | body weight of immunized mice [1]: Lower body weight | effect against chemotherapy side effects [2]: protective effect against chemotherapy side effects

AMG 479: a fully human anti-insulin-like growth factor receptor type I monoclonal antibody
effect on growth and survival of pancreatic carcinoma cells [3]: inhibits the growth and survival of pancreatic carcinoma cells

B1: insulin-like growth factor-binding protein 1 (protein, UniProt P08833 26-259, looked up)
Insulin-like growth …: APWQCAPCSAEKLALCPPVSASCSEVTRSAGCGCCPMCALPLGAACGVATARCARGLSCRALPGEQQPLHALTRGQGACVQESDASAPHAAEAGSPESPESTEITEEELLDNFHLMAPSEEDHSILWDAISTYDGSKALHVTNIKKWKEPCRIELYRVVESLAKAQETSGEEISKFYLPNCNKNGFYHSRQCETSMDGEAGLCWCVYPWNGKRIPGSPEIRGDPNCQIYFNVQN
protection against oxidative damage (LDH release) (primary glial cells): protects them against oxidative damage

From patent publication US20210246202A1, “TREATMENTS RELATED TO GH/IGF-1 AXIS INHIBITION” (UNIVERSITY OF SOUTHERN CALIFORNIA, priority 2010, published 2021)
